# Source: publication PMC3984044 (ChemMedChem, 2013)
# Structures can show the parent of a compound that is named as a salt. Where two headings read alike, the source gives them in different places.
# Legend:
# [1] = system: PrP^Sc levels in ScN2a-cl3 cells; assay: cells; assay type: cell-based, mouse
# in vivo = conditions: mouse, po, 10 mg/kg
# [2] = mouse, microsomes
# in vitro = conditions: mouse, microsomes
# [3] = mouse, in vivo; cited from earlier work
# [4] = Mus musculus, read-out: EC50 ± SEM(nM)
smiles,measurement,setting,value
"CN(C)c1cccc(Nc2nc(-c3ccc(-c4ccccc4)cc3)cs2)n1 [Compound 23, N2-(4-([1,1′-biphenyl]-4-yl)thiazol-2-yl)-N6,N6-dimethylpyridine-2,6-diamine]",EC50,[1]; [4],699 ± 87 nM
"COCCOc1cc(-c2ccc(-c3csc(Nc4cccc(C)n4)n3)cc2)ccn1 [Compound 26, 4-(4-(2-(2-methoxyethoxy)pyridin-4-yl)phenyl)-N-(6-methylpyridin-2-yl)thiazol-2-amine]",EC50,[1]; [4],153 ± 36 nM
same,Cmax,in vivo,330 ± 160 nM
same,AUC,in vivo; AUC (μM *h) Brain,1.04 ± 0.13 µM·h
"Cn1nccc1-c1ccc(-c2csc(NC(=O)C3CC3)n2)cc1 [Compound 42, Cyclopropanecarboxylic acid {4-[4-(2-methyl-2H-pyrazol-3-yl)-phenyl]-thiazol-2-yl}-amide]",EC50,[1]; [4],> 10000 nM
"O=C(Nc1nc(-c2ccc(-c3ccccc3)cc2)cs1)C1CC1 [Compound 34, cyclopropanecarboxylic acid (4-biphenyl-thiazol-2-yl)-amide]",EC50,[1]; read-out: EC50 ± SEM,248 ± 67 nM
same,T1/2,[2],>60 min
"Cc1cccc(Nc2nc(-c3ccc(-c4ccnc(OC(C)C)c4)cc3)cs2)n1 [Compound 28, 4-(4-(2-isopropoxypyridin-4-yl)phenyl)-N-(6-methylpyridin-2-yl)thiazol-2-amine]",EC50,[1]; [4],2840 ± 22 nM
"Cc1cccc(Nc2nc(-c3ccc(-c4c(C)noc4C)cc3)cs2)n1 [Compound 19, {4-[4-(3,5-Dimethyl-isoxazol-4-yl)-phenyl]-thiazol-2-yl}-(6-methyl-pyridin-2-yl)-amine]",EC50,[1]; [4],2130 ± 226 nM
"Cc1cccc(Nc2nc(-c3ccc(-c4ccnc(N(C)C)c4)cc3)cs2)n1 [Compound 30, 4-(4-(2-(dimethylamino)pyridin-4-yl)phenyl)-N-(6-methylpyridin-2-yl)thiazol-2-amine]",EC50,[1]; [4],123 ± 35 nM
"COCCOc1ccc(-c2ccc(-c3csc(NC(=O)C4CC4)n3)cc2)cn1 [Compound 46, N-(4-(4-(6-(2-methoxyethoxy)pyridin-3-yl)phenyl)thiazol-2-yl)cyclopropanecarboxamide]",EC50,[1]; [4],118 ± 11 nM
same,Cmax,in vivo,150 ± 10 nM
same,AUC,in vivo; AUC (μM *h) Brain,0.32 µM·h
same,AUC,in vivo; AUC (μM *h) Plasma,0.26 ± 0.01 µM·h
same,half-life,in vitro,55 min
"Cc1cccc(Nc2nc(-c3ccc(-c4cccnc4)cc3)cs2)n1 [Compound 15, (6-Methyl-pyridin-2-yl)-[4-(4-pyridin-3-yl-phenyl)-thiazol-2-yl]-amine]",fold greater antiprion potency than 1,[1],> 10 fold
same,EC50,[1]; [4],68 ± 13 nM
same,half-life,in vitro,> 60 min
"Cc1cccc(Nc2nc(-c3ccc(-c4ccc(OC(C)C)nc4)cc3)cs2)n1 [Compound 29, 4-(4-(6-Isopropoxypyridin-3-yl)phenyl)-N-(6-methylpyridin-2-yl)thiazol-2-amine]",EC50,[1]; [4],5860 ± 327 nM
"Cc1cccc(Nc2nc(-c3ccc(-c4ccc(N5CCN(C)CC5)nc4)cc3)cs2)n1 [Compound 33, 4-(4-(6-(4-Methylpiperazin-1-yl)pyridin-3-yl)phenyl)-N-(6-methylpyridin-2-yl)thiazol-2-amine]",EC50,[1]; [4],96 ± 31 nM
"CN1CCN(c2cccc(Nc3nc(-c4ccc(-c5ccccc5)cc4)cs3)n2)CC1 [Compound 24, 4-([1,1′-Biphenyl]-4-yl)-N-(6-(4-methylpiperazin-1-yl)pyridin-2-yl)thiazol-2-amine]",EC50,[1]; [4],1180 ± 206 nM
"Cc1cccc(Nc2nc(-c3ccc(-c4ccncc4C)cc3)cs2)n1 [Compound 14, (6-Methyl-pyridin-2-yl)-{4-[4-(3-methyl-pyridin-4-yl)-phenyl]-thiazol-2-yl}-amine trifluoro acetic acid salt]",EC50,[1]; [4],400 ± 61 nM
"COCCOc1cccc(Nc2nc(-c3ccc(-c4ccccc4)cc3)cs2)n1 [Compound 22, 4-([1,1′-Biphenyl]-4-yl)-N-(6-(2-methoxyethoxy)pyridin-2-yl)thiazol-2-amine]",antiprion activity (in words),[1],inactive
same,EC50,[1]; [4],> 10000 nM
"COCCOc1ccc(-c2ccc(-c3csc(Nc4cccc(C)n4)n3)cc2)cn1 [Compound 27, 4-(4-(6-(2-methoxyethoxy)pyridin-3-yl)phenyl)-N-(6-methylpyridin-2-yl)thiazol-2-amine]",EC50,[1]; [4],137 ± 13 nM
same,Cmax,in vivo,970 ± 220 nM
same,AUC,in vivo; AUC (μM *h) Brain,3.27 ± 0.44 µM·h
same,AUC,in vivo; AUC (μM *h) Plasma,6.75 ± 0.45 µM·h
same,half-life,in vitro,> 60 min
"CN(C)c1ccc(-c2ccc(-c3csc(NC(=O)C4CC4)n3)cc2)cn1 [Compound 41, Cyclopropanecarboxylic acid {4-[4-(6-dimethylamino-pyridin-3-yl)-phenyl]-thiazol-2-yl}-amide]",EC50,[1]; [4],109 ± 12 nM
"Cc1noc(C)c1-c1ccc(-c2csc(NC(=O)C3CC3)n2)cc1 [Compound 43, Cyclopropanecarboxylic acid {4-[4-(3,5-dimethyl-isoxazol-4-yl)-phenyl]-thiazol-2-yl}-amide]",EC50,[1]; [4],> 10000 nM
"Cc1ncccc1-c1ccc(-c2csc(NC(=O)C3CC3)n2)cc1 [Compound 40, Cyclopropanecarboxylic acid {4-[4-(2-methyl-pyridin-3-yl)-phenyl]-thiazol-2-yl}-amide]",EC50,[1]; [4],> 10000 nM
"Cc1cccc(Nc2nc(-c3ccc(-c4ccccc4)cc3)cs2)n1 [Compound 1, (4-Biphenyl-4-yl-thiazol-2-yl)-(6-methyl-pyridin-2-yl)-amine]",EC50,[1]; [4],1290 ± 122 nM
same,Cmax,in vivo,2450 ± 740 nM
same,half-life,in vitro,> 60 min
same,oral bioavailability (%F),[3],~40%
"COCCOc1cc(-c2ccc(-c3csc(NC(=O)C4CC4)n3)cc2)ccn1 [Compound 44, N-(4-(4-(2-(2-methoxyethoxy)pyridin-4-yl)phenyl)thiazol-2-yl)cyclopropanecarboxamide]",EC50,[1]; [4],1320 ± 233 nM
"COc1ccc(-c2ccc(-c3csc(Nc4cccc(C)n4)n3)cc2)cn1 [Compound 25, {4-[4-(6-Methoxy-pyridin-3-yl)-phenyl]-thiazol-2-yl}-(6-methyl-pyridin-2-yl)-amine]",EC50,[1]; [4],140 ± 23 nM
"Cc1cccc(Nc2nc(-c3ccc(-c4cc[n+]([O-])cc4)cc3)cs2)n1 [Compound 13, 4-(4-(2-((6-Methylpyridin-2-yl)amino)thiazol-4-yl)phenyl)pyridine 1-oxide]",EC50,[1]; [4],559 ± 120 nM
"O=C(Nc1nc(-c2ccc(-c3ccncc3)cc2)cs1)C1CC1 [Compound 39, Cyclopropanecarboxylic acid [4-(4-pyridin-4-yl-phenyl)-thiazol-2-yl]-amide trifluoroacetic acid salt]",EC50,[1]; [4],173 ± 16 nM
"Cc1cccc(Nc2nc(-c3ccc(-c4ccncc4)cc3)cs2)n1 [Compound 12, (6-Methyl-pyridin-2-yl)-[4-(4-pyridin-4-yl-phenyl)-thiazol-2-yl]-amine]",fold greater antiprion potency than 1,[1],> 10 fold
same,EC50,[1]; [4],87 ± 43 nM
same,half-life,in vitro,> 60 min
"CN1CCN(c2cc(-c3ccc(-c4csc(NC(=O)C5CC5)n4)cc3)ccn2)CC1 [Compound 45, N-(4-(4-(2-(4-methylpiperazin-1-yl)pyridin-4-yl)phenyl)thiazol-2-yl)cyclopropanecarboxamide]",EC50,[1]; [4],682 ± 100 nM
same,Cmax,in vivo,250 ± 110 nM
same,AUC,in vivo; AUC (μM *h) Brain,1.29 ± 0.02 µM·h
same,AUC,in vivo; AUC (μM *h) Plasma,0.76 ± 0.01 µM·h
same,half-life,in vitro,4.4 min
"Cc1cccc(Nc2nc(-c3ccc(-c4cccnc4C)cc3)cs2)n1 [Compound 17, (6-Methyl-pyridin-2-yl)-{4-[4-(2-methyl-pyridin-3-yl)-phenyl]-thiazol-2-yl}-amine trifluoro acetic acid salt]",EC50,[1]; [4],618 ± 54 nM
"CN1CCN(c2ccc(-c3ccc(-c4csc(NC(=O)C5CC5)n4)cc3)cn2)CC1 [Compound 47, N-(4-(4-(6-(4-methylpiperazin-1-yl)pyridin-3-yl)pheyl)thiazol-2-yl)cyclopropanecarboxamide]",EC50,[1]; read-out: EC50 ± SEM,70 ± 23 nM
same,T1/2,[2],2.5 min
"Cc1cccc(Nc2nc(-c3ccc(-c4ccc[n+]([O-])c4)cc3)cs2)n1 [Compound 16, 3-(4-(2-((6-Methylpyridin-2-yl)amino)thiazol-4-yl)phenyl)pyridine 1-oxide]",EC50,[1]; [4],203 ± 10 nM
same,Cmax,in vivo,900 ± 240 nM
same,AUC,in vivo; AUC (μM *h) Brain,3.85 ± 0.52 µM·h
same,AUC,in vivo; AUC (μM *h) Plasma,11.5 ± 0.71 µM·h
same,half-life,in vitro,> 60 min
"Cc1cccc(Nc2nc(-c3ccc(-c4ccc(N(C)C)nc4)cc3)cs2)n1 [Compound 31, 4-(4-(6-(Dimethylamino)pyridin-3-yl)phenyl)-N-(6-methylpyridin-2-yl)thiazol-2-amine]",EC50,[1]; [4],69 ± 21 nM
"Cc1cccc(Nc2nc(-c3ccc(N4CCN(C)CC4)cc3)cs2)n1 [Compound 20, {4-[4-(4-Methyl-piperazin-1-yl)-phenyl]-thiazol-2-yl}-(6-methyl-pyridin-2-yl)-amine]",EC50,[1]; [4],840 ± 132 nM
"Cc1cccc(Nc2nc(-c3ccc(-c4ccnn4C)cc3)cs2)n1 [Compound 18, {4-[4-(2-Methyl-2H-pyrazol-3-yl)-phenyl]-thiazol-2-yl}-(6-methyl-pyridin-2-yl)-amine]",EC50,[1]; [4],89 ± 35 nM
"Cc1cccc(Nc2nc(-c3ccc(N4CCOCC4)cc3)cs2)n1 [Compound 21, (6-Methyl-pyridin-2-yl)-[4-(4-morpholin-4-yl-phenyl)-thiazol-2-yl]-amine]",EC50,[1]; [4],51 ± 7 nM
"Cc1cccc(Nc2nc(-c3ccc(-c4ccnc(N5CCN(C)CC5)c4)cc3)cs2)n1 [Compound 32, 4-(4-(2-(4-methylpiperazin-1-yl)pyridin-4-yl)phenyl)-N-(6-methylpyridin-2-yl)thiazol-2-amine]",EC50,[1]; [4],759 ± 374 nM
same,Cmax,in vivo,1170 ± 190 nM
same,AUC,in vivo; AUC (μM *h) Brain,5.22 ± 0.1 µM·h
same,AUC,in vivo; AUC (μM *h) Plasma,1.57 ± 0.15 µM·h
same,half-life,in vitro,6.8 min
